Five compounds from patent publication US5977133A, “Pyridone antibiotic with improved safety profile” (priority 1998, dated 1999) can be followed below.

Series [1] relates to P. aeruginosa (CiproS). As to the kind of experiment: In vitro MIC, agar dilution. The format is cell-based. As to conditions: Pseudomonas aeruginosa; for MIC50: read-out: MIC50; for MIC: read-out: MIC Range. (In general: Agar dilution tests growth on a series of plates holding different concentrations.)
In series [2] the test system is Enterobacter spp. The series is described as follows: In vitro MIC, agar dilution. As to conditions: for MIC: read-out: MIC Range. The class given is cell-based.
The subject of series [3] is N. gonorrhoeae. The series is described as follows: In vitro MIC, agar dilution. The class given is cell-based. The following applies: Neisseria gonorrhoeae; for MIC: read-out: MIC Range; for MIC50: read-out: MIC50.
A short description of series [4]: in vivo. The following applies: mouse, ip.
In series [5] the test system is streptococci. The series is described as follows: In vitro MIC, agar dilution (summary in text). The class given is cell-based.
Series [6] has as its system staphylococci. The series is described as follows: In vitro MIC, agar dilution (summary in text). The class given is cell-based.
For series [7], the system named is Streptococcus pneumoniae 6303. The series is described as follows: In vivo efficacy, mouse infection (ED50). The following applies: for ED50: Streptococcus pneumoniae, 6303, in Mus musculus, 168 h.
In series [8] the test system is Escherichia coli JUHL. As to the kind of experiment: In vivo efficacy, mouse infection (ED50). As to conditions: for ED50: Escherichia coli, in Mus musculus, 168 h.
Series [9] relates to staphylococcus aureus NTCC 10649. The series is described as follows: In vivo efficacy, mouse infection (ED50). The following applies: for ED50: Staphylococcus aureus, NTCC10649, in Mus musculus, 168 h.
In series [10] the test system is ciprofloxacin resistant staphylococcal strains. As to the kind of experiment: In vitro MIC, agar dilution (summary in text). The format is cell-based. The following applies: read-out: MIC90.
The subject of series [11] is enterococci. The series is described as follows: In vitro MIC, agar dilution (summary in text). The format is cell-based.
Series [12] has as its system bacteria. As to the kind of experiment: In vitro antibacterial activity (overall statement). The class given is cell-based. As to conditions: overall statement.
For series [13], the system named is enterobacteriaceae. As to the kind of experiment: microbe, parasite or virus in culture. The class given is cell-based.
Series [14] concerns gram positive and gram negative infections. The series is described as follows: In vivo efficacy in mice (overall statement). Also noted: species or system female CF-1 outbred mice. The following applies: for in vivo efficacy in words: gram positive and gram negative infections.
Series [15] relates to anaerobes. The class given is cell-based, B. fragilis, C. difficile, C. perfringens. As to conditions: words.
Where [16] appears, read: P. aeruginosa (CiproS), 24 isolates.
Where [17] appears, read: P. aeruginosa (CiproS), 24 isolates, read-out: MIC90.
[18] abbreviates: Enterobacter spp., 35 isolates, read-out: MIC50.

Molecules are shown by their SMILES. Values after ≈ are worked out from the molar mass of the structure shown. “Also recorded” adds a separate entry of the source. Structures can show the parent of a compound that is named as a salt. Where two headings read alike, the source gives them in different places.

By MIC50 is commonly meant the lowest concentration that inhibits either 50% of growth or 50% of the strains tested, depending on the study. As a reminder, the MIC is the least concentration at which growth counts as inhibited. On to `N[C@@H]1[C@H]2CN(c3nc4c(cc3F)c(=O)c(C(=O)O)cn4-c3ccc(F)cc3F)C[C@@H]12` [Trovafloxacin, trovafloxacin], for which the MIC50 turned out to be 0.5 µg/mL (≈ 1.2 µM) in [1] (setting [16]); 0.12 µg/mL (≈ 0.288 µM) in series [2] (setting [18]); 0.015 µg/mL (≈ 0.036 µM) in [3] (N. gonorrhoeae, 12 isolates). The MIC90 stood at 2 µg/mL (≈ 4.8 µM) in series [1] (setting [17]), 0.12 µg/mL (≈ 0.288 µM) in series [2] (Enterobacter) and 0.06 µg/mL (≈ 0.144 µM) in series [3]. Besides, the minimum inhibitory concentration (MIC) in [1] (setting [16]) lay in the range of 0.12 to 4 µg/mL (≈ 0.288 to 9.61 µM); in series [2] (Enterobacter spp., 35 isolates) it was 0.015 to 0.5 µg/mL (≈ 0.036 to 1.2 µM); in [3] it was 0.015 to 0.12 µg/mL (≈ 0.036 to 0.288 µM).
In general, LD50 refers to the dose expected to kill half of the subjects tested. A low value points to a more toxic substance. What is called ED50 is the midpoint of the dose-response relation. Higher therefore signals a need for a large dose. For the compound `CN[C@@H]1CN(c2c(F)cn3c(=O)c(C(=O)O)cc(C4CC4)c3c2C)CC12CC2` [Example 1, 1-cyclopropyl-8-(7(S)-N-methylamino-5-azaspiro[2.4]heptyl)-7-fluoro-9-methyl-4-oxo-4H-guinolizine-3-carboxylic acid hydrochloride], the MIC50 is 0.5 µg/mL in series [1] (setting [16]); 0.015 µg/mL in [2] (setting [18]); 0.002 µg/mL in [3] (N. gonorrhoeae, 12 isolates). In addition, the MIC90 in [1] (setting [17]) is 2 µg/mL; in [5], 0.06 µg/mL; in series [6], 0.03 µg/mL; in series [2] (Enterobacter), 0.03 µg/mL; in [10], 0.5 µg/mL; in series [11] it was 0.25 to 1 µg/mL. For the same compound, the MIC90 in [13] is 0.015 to 0.25 µg/mL; in series [3], 0.004 µg/mL. The MIC in series [1] (setting [16]) was 0.12 to 4 µg/mL; in series [2] (Enterobacter spp., 35 isolates), 0.008 to 0.12 µg/mL; in series [3] (N. gonorrhoeae, 12 isolates) it was 0.001 to 0.015 µg/mL. The compound also came in with an LD50 at 504 h in series [4] of 232 mg/kg. Further, the “in vitro activity relative to reference drugs” value in series [5] (words) was “superior to ciprofloxacin, sparfloxacin, and trovafloxacin”; in [6] (words), “superior to ciprofloxacin, sparfloxacin, and trovafloxacin”; in series [11] (words) it was “superior to ciprofloxacin, sparfloxacin, and trovafloxacin”; in [13] it was “equivalent to ciprofloxacin and superior to trovafloxacin and sparfloxacin”; in [15], “significantly more active than ciprofloxacin, trovafloxacin, and sparfloxacin”. For the same compound, for the setting “mouse, in vivo”, the “weight loss in words” value was “no weight loss was observed”. Further, under “single intraperitoneal injection to mice, hydrochloride”, the “relative toxicity / safety in words” value is “significantly less toxic than Example 2 or Example 5; also recorded: less morbidity and mortality than equivalent doses of Example 2 and Example 5”. Moreover, the “efficacy relative to ciprofloxacin” value in series [7] (S. pneumoniae, words) is “superior to ciprofloxacin”; in series [8] (E. coli, words) it was “comparable”; in [9] (S. aureus, words), “superior to ciprofloxacin”. The ED50 in [7] (po) amounted to 20 mg/kg; in [7] (sc), 12.5 mg/kg; in series [8] (po), 6.8 mg/kg; in series [8] (sc) it was 1.4 mg/kg; in series [9] (po) it was 5 mg/kg; in [9] (sc) it was 1.5 mg/kg. Besides, the “antibacterial activity in words” value in series [12] is “excellent, broad-spectrum antibacterial activity”. In addition, the “in vivo efficacy in words” value in series [14] (hydrochloride) is “maintaining efficacy versus S. aureus. S. pneumoniae and E. coli”; in series [14] (listed as example 1, hydrochloride), “broad spectrum efficacy against both gram positive and gram negative infections”. In addition, the “oral efficacy in words” value in series [14] (oral, all infections) is on record as “Oral efficacy was also demonstrated against all infections”.
With `Cc1c(N2C[C@@H](N)C3(CC3)C2)c(F)cn2c(=O)c(C(=O)O)cc(C3CC3)c12` [Example 5, 1-cyclopropyl-8-(7(S)-amino-5-azaspiror2.41heptvl)-7-fluoro-9-methyl4-oxo-4H-quinolizine-3-carboxylic acid hydrochloride], the MIC50 in series [1] (setting [16]) amounted to 0.12 µg/mL; in [2] (setting [18]), 0.015 µg/mL; in series [3] (N. gonorrhoeae, 12 isolates), 0.002 µg/mL. In addition, the MIC90 in series [1] (setting [17]) was found to be 1 µg/mL; in [2] (Enterobacter), 0.03 µg/mL; in series [3] it was 0.015 µg/mL. The MIC is 0.06 to 1 µg/mL in [1] (setting [16]); 0.004 to 0.12 µg/mL in series [2] (Enterobacter spp., 35 isolates); 0.002 to 0.015 µg/mL in [3] (N. gonorrhoeae, 12 isolates). The compound also yielded an LD50 at 504 h in series [4] of 105 mg/kg. Further, the body weight loss (mouse, in vivo, ip, 100 mg/kg) was 18%. Also, the ED50 in series [7] (po) was 4.2 mg/kg; in series [7] (sc) it was 0.9 mg/kg; in [8] (po), 5 mg/kg; in series [8] (sc), 0.6 mg/kg; in series [9] (po) it was 2.3 mg/kg; in series [9] (sc), 0.9 mg/kg.
`NC1CCN(c2c(F)cc3c(=O)c(C(=O)O)cn(C4CC4)c3c2Cl)C1` (stereo not shown) [Clinafloxacin, clinafloxacin]: the MIC90 in [1] came to 0.5 µg/mL (≈ 1.37 µM); in series [2] (Enterobacter), 0.03 µg/mL (≈ 0.082 µM); in series [3], 0.015 µg/mL (≈ 0.041 µM). The MIC50 in series [1] (setting [16]) was determined as 0.12 µg/mL (≈ 0.328 µM); in series [2] (Enterobacter) it was 0.03 µg/mL (≈ 0.082 µM); in series [3] (N. gonorrhoeae, 12 isolates) it was 0.004 µg/mL (≈ 0.0109 µM). For the same compound, the MIC lay within 0.015 to 0.5 µg/mL (≈ 0.041 to 1.37 µM) in [1] (setting [16]); 0.03 to 0.12 µg/mL (≈ 0.082 to 0.328 µM) in series [2] (Enterobacter); 0.004 to 0.015 µg/mL (≈ 0.0109 to 0.041 µM) in series [3] (N. gonorrhoeae, 12 isolates).
With `C[C@@H]1CN(c2c(F)c(N)c3c(=O)c(C(=O)O)cn(C4CC4)c3c2F)C[C@H](C)N1` [Sparfloxacin, sparfloxacin], the MIC50 in [1] (setting [16]) is 0.5 µg/mL (≈ 1.27 µM); in series [2] (setting [18]), 0.06 µg/mL (≈ 0.153 µM); in [3] (N. gonorrhoeae, 12 isolates) it was 0.004 µg/mL (≈ 0.0102 µM). Moreover, the values for the MIC90 in [1] (setting [17]), in series [2] (Enterobacter) and in [3] were 1 µg/mL (≈ 2.55 µM), 0.06 µg/mL (≈ 0.153 µM) and 0.015 µg/mL (≈ 0.0382 µM), respectively. The MIC in series [1] (setting [16]) was in the range of 0.06 to 8 µg/mL (≈ 0.153 to 20.4 µM); in series [2] (Enterobacter spp., 35 isolates), 0.008 to 0.25 µg/mL (≈ 0.0204 to 0.637 µM); in [3] (N. gonorrhoeae, 12 isolates), 0.002 to 0.06 µg/mL (≈ 0.0051 to 0.153 µM).
